This is an account of results in patent US10913727B2, “Modulators of the integrated stress pathway” (Calico Life Sciences LLC, priority 2016, dated 2021).

The structures appear in SMILES notation. pEC50: −log10 of the molar value. Where only a bound is given, the exact number is not on record here.

This assay deals with HEK293T cells carrying the ATF4 luciferase reporter. Description: ATF4-Luc assay, in vitro model of Vanishing Cell White Matter Disease (VWMD). The assay is classed as cell-based. To be noted: Homo sapiens, HEK-293T, 1 μg/mL tunicamycin, 7 hours, One Glo luminescence. An outline of the steps: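 Stable HEK293T line with human ATF4 5′-UTR–firefly luciferase reporter treated with 1 μg/mL tunicamycin plus 200 nM compound for 7 h. Luminescence read; EC50 derived.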
As a reminder, the pEC50 is −log10 of the EC50, conventionally taken in molar units. Consider `COc1cncc(C(=O)NC23CC(NC(=O)COc4ccc(Cl)c(F)c4)(C2)C3)c1` [Compound 790, N-{3-[2-(4-chloro-3-fluorophenoxy)acetamido]bicyclo[1.1.1]pentan-1-yl}-5-methoxypyridine-3-carboxamide], for which the pEC50 is 6.60 to 7.30.

For `Cc1noc2ncc(C(=O)NC34CC(NC(=O)COc5ccc(Cl)c(F)c5)(C3)C4)cc12` [Compound 791, N-{3-[2-(4-chloro-3-fluorophenoxy)acetamido]bicyclo[1.1.1]pentan-1-yl}-3-methyl[1,2]oxazolo[5,4-b]pyridine-5-carboxamide], the pEC50 was below 5.70.

For the compound `O=C(COc1ccc(Cl)c(F)c1)NC12CC(NC(=O)c3cncc(F)c3)(C1)C2` [Compound 792, N-{3-[2-(4-chloro-3-fluorophenoxy)acetamido]bicyclo[1.1.1]pentan-1-yl}-5-fluoropyridine-3-carboxamide], the pEC50 was 6.00 to 6.60.

As for `O=C(COc1ccc(Cl)c(F)c1)NC12CC(NC(=O)c3ncccn3)(C1)C2` [Compound 793, N-{3-[2-(4-chloro-3-fluorophenoxy)acetamido]bicyclo[1.1.1]pentan-1-yl}pyrimidine-2-carboxamide], the pEC50 is 6.00 to 6.60.

On to `O=C1COc2cc(C(=O)NC34CC(NC(=O)COc5ccc(Cl)c(F)c5)(C3)C4)ccc2N1` [Compound 794, N-{3-[2-(4-chloro-3-fluorophenoxy)acetamido]bicyclo[1.1.1]pentan-1-yl}-3-oxo-3,4-dihydro-2H-1,4-benzoxazine-7-carboxamide], for which the pEC50 was below 5.70.

With `Cc1nc(C(=O)NC23CC(NC(=O)COc4ccc(Cl)c(F)c4)(C2)C3)c(C)o1` [Compound 795, N-{3-[2-(4-chloro-3-fluorophenoxy)acetamido]bicyclo[1.1.1]pentan-1-yl}-2,5-dimethyl-1,3-oxazole-4-carboxamide], the negative logarithm of the EC50 (pEC50) was below 5.70.

In the case of `O=C(COc1ccc(Cl)c(F)c1)NC12CC(NC(=O)c3sccc3F)(C1)C2` [Compound 796, N-{3-[2-(4-chloro-3-fluorophenoxy)acetamido]bicyclo[1.1.1]pentan-1-yl}-3-fluorothiophene-2-carboxamide], the negative-log EC50 (pEC50) was below 5.70.

`O=C(COc1ccc(Cl)c(F)c1)NC12CC(NC(=O)c3ccc4nsnc4c3)(C1)C2` [Compound 797, N-{3-[2-(4-chloro-3-fluorophenoxy)acetamido]bicyclo[1.1.1]pentan-1-yl}-2,1,3-benzothiadiazole-5-carboxamide]: the pEC50 was below 5.70.

With `O=C(COc1ccc(Cl)c(F)c1)NC12CC(NC(=O)c3cc4cccnc4s3)(C1)C2` [Compound 798, N-{3-[2-(4-chloro-3-fluorophenoxy)acetamido]bicyclo[1.1.1]pentan-1-yl}thieno[2,3-b]pyridine-2-carboxamide], the pEC50 is below 5.70.

On to `O=C(COc1ccc(Cl)c(F)c1)NC12CC(NC(=O)c3cn4ccsc4n3)(C1)C2` [Compound 799, N-{3-[2-(4-chloro-3-fluorophenoxy)acetamido]bicyclo[1.1.1]pentan-1-yl}imidazo[2,1-b][1,3]thiazole-6-carboxamide], for which the pEC50 was below 5.70.

Regarding `O=C(COc1ccc(Cl)c(F)c1)NC12CC(NC(=O)c3ccc4snnc4c3)(C1)C2` [Compound 800, N-{3-[2-(4-chloro-3-fluorophenoxy)acetamido]bicyclo[1.1.1]pentan-1-yl}-1,2,3-benzothiadiazole-5-carboxamide], the pEC50 was below 5.70.

For `O=C(COc1ccc(Cl)c(F)c1)NC12CC(NC(=O)c3ccc4ocnc4c3)(C1)C2` [Compound 801, N-{3-[2-(4-chloro-3-fluorophenoxy)acetamido]bicyclo[1.1.1]pentan-1-yl}-1,3-benzoxazole-5-carboxamide], the pEC50 is below 5.70.

Regarding `O=C(COc1ccc(Cl)c(F)c1)NC12CC(NC(=O)c3cnn(-c4ccccn4)c3)(C1)C2` [Compound 802, N-{3-[2-(4-chloro-3-fluorophenoxy)acetamido]bicyclo[1.1.1]pentan-1-yl}-1-(pyridin-2-yl)-1H-pyrazole-4-carboxamide], the pEC50 is below 5.70.

With `O=C(COc1ccc(Cl)c(F)c1)NC12CC(NC(=O)c3cccc4nsnc34)(C1)C2` [Compound 803, N-{3-[2-(4-chloro-3-fluorophenoxy)acetamido]bicyclo[1.1.1]pentan-1-yl}-2,1,3-benzothiadiazole-4-carboxamide], the pEC50 is below 5.70.

For `Cc1onc(-c2ccccn2)c1C(=O)NC12CC(NC(=O)COc3ccc(Cl)c(F)c3)(C1)C2` [Compound 804, N-{3-[2-(4-chloro-3-fluorophenoxy)acetamido]bicyclo[1.1.1]pentan-1-yl}-5-methyl-3-(pyridin-2-yl)-1,2-oxazole-4-carboxamide], the pEC50 is below 5.70.

Take `CC(=O)Nc1ccc(C(=O)NC23CC(NC(=O)COc4ccc(Cl)c(F)c4)(C2)C3)cn1` [Compound 805, 6-acetamido-N-{3-[2-(4-chloro-3-fluorophenoxy)acetamido]bicyclo[1.1.1]pentan-1-yl}pyridine-3-carboxamide]: the pEC50 was below 5.70.

On to `Cc1cnc2c(C(=O)NC34CC(NC(=O)COc5ccc(Cl)c(F)c5)(C3)C4)cnn2c1` [Compound 806, N-{3-[2-(4-chloro-3-fluorophenoxy)acetamido]bicyclo[1.1.1]pentan-1-yl}-6-methylpyrazolo[1,5-a]pyrimidine-3-carboxamide], for which the pEC50 was below 5.70.

In the case of `O=C(COc1ccc(Cl)c(F)c1)NC12CC(NC(=O)c3cccnc3-n3cccn3)(C1)C2` [Compound 807, N-{3-[2-(4-chloro-3-fluorophenoxy)acetamido]bicyclo[1.1.1]pentan-1-yl}-2-(1H-pyrazol-1-yl)pyridine-3-carboxamide], the pEC50 is below 5.70.

In the case of `Cc1ccn2cc(C(=O)NC34CC(NC(=O)COc5ccc(Cl)c(F)c5)(C3)C4)nc2c1` [Compound 808, N-{3-[2-(4-chloro-3-fluorophenoxy)acetamido]bicyclo[1.1.1]pentan-1-yl}-7-methylimidazo[1,2-a]pyridine-2-carboxamide], the pEC50 was below 5.70.

On to `COc1ncccc1C(=O)NC12CC(NC(=O)COc3ccc(Cl)c(F)c3)(C1)C2` [Compound 809, N-{3-[2-(4-chloro-3-fluorophenoxy)acetamido]bicyclo[1.1.1]pentan-1-yl}-2-methoxypyridine-3-carboxamide], for which the pEC50 is below 5.70.

With `Cc1nc2cc(C(=O)NC34CC(NC(=O)COc5ccc(Cl)c(F)c5)(C3)C4)ccc2n1C` [Compound 810, N-{3-[2-(4-chloro-3-fluorophenoxy)acetamido]bicyclo[1.1.1]pentan-1-yl}-1,2-dimethyl-1H-benzimidazole-5-carboxamide], the pEC50 was below 5.70.

In the case of `O=C(COc1ccc(Cl)c(F)c1)NC12CC(NC(=O)c3ccc4nccn4c3)(C1)C2` [Compound 811, N-{3-[2-(4-chloro-3-fluorophenoxy)acetamido]bicyclo[1.1.1]pentan-1-yl}imidazo[1,2-a]pyridine-6-carboxamide], the pEC50 was below 5.70.

`O=C(COc1ccc(Cl)c(F)c1)NC12CC(NC(=O)c3cnc(O)[nH]3)(C1)C2` [Compound 812, N-{3-[2-(4-chloro-3-fluorophenoxy)acetamido]bicyclo[1.1.1]pentan-1-yl}-2-hydroxy-1H-imidazole-5-carboxamide]: the pEC50 is 5.70 to 6.00.

As for `CS(=O)(=O)c1cccc(C(=O)NC23CC(NC(=O)COc4ccc(Cl)c(F)c4)(C2)C3)c1` [Compound 813, N-{3-[2-(4-chloro-3-fluorophenoxy)acetamido]bicyclo[1.1.1]pentan-1-yl}-3-(methanesulfonyl)benzamide], the pEC50 was below 5.70.

Regarding `Cc1cnccc1C(=O)NC12CC(NC(=O)COc3ccc(Cl)c(F)c3)(C1)C2` [Compound 814, N-{3-[2-(4-chloro-3-fluorophenoxy)acetamido]bicyclo[1.1.1]pentan-1-yl}-3-methylpyridine-4-carboxamide], the pEC50 was below 5.70.

Consider `Cc1cc(C)c(C(=O)NC23CC(NC(=O)COc4ccc(Cl)c(F)c4)(C2)C3)cn1` [Compound 815, N-{3-[2-(4-chloro-3-fluorophenoxy)acetamido]bicyclo[1.1.1]pentan-1-yl}-4,6-dimethylpyridine-3-carboxamide], for which the pEC50 was below 5.70.

With `CC(=O)Nc1ccc(C(=O)NC23CC(NC(=O)COc4ccc(Cl)c(F)c4)(C2)C3)cc1` [Compound 816, 4-acetamido-N-{3-[2-(4-chloro-3-fluorophenoxy)acetamido]bicyclo[1.1.1]pentan-1-yl}benzamide], the pEC50 was below 5.70.

Turning to `O=C(COc1ccc(Cl)c(F)c1)NC12CC(NC(=O)c3ccncc3F)(C1)C2` [Compound 817, N-{3-[2-(4-chloro-3-fluorophenoxy)acetamido]bicyclo[1.1.1]pentan-1-yl}-3-fluoropyridine-4-carboxamide], the pEC50 was below 5.70.

Turning to `Cn1cc(C(=O)NC23CC(NC(=O)COc4ccc(Cl)c(F)c4)(C2)C3)ccc1=O` [Compound 818, N-{3-[2-(4-chloro-3-fluorophenoxy)acetamido]bicyclo[1.1.1]pentan-1-yl}-1-methyl-6-oxo-1,6-dihydropyridine-3-carboxamide], the pEC50 is below 5.70.

In the case of `CC(C)n1ccc(C(=O)NC23CC(NC(=O)COc4ccc(Cl)c(F)c4)(C2)C3)n1` [Compound 819, N-{3-[2-(4-chloro-3-fluorophenoxy)acetamido]bicyclo[1.1.1]pentan-1-yl}-1-(propan-2-yl)-1H-pyrazole-3-carboxamide], the pEC50 is 6.00 to 6.60.

`O=C(COc1ccc(Cl)c(F)c1)NC12CC(NC(=O)c3ccon3)(C1)C2` [Compound 820, N-{3-[2-(4-chloro-3-fluorophenoxy)acetamido]bicyclo[1.1.1]pentan-1-yl}-1,2-oxazole-3-carboxamide]: the pEC50 is below 5.70.

Turning to `Cn1cccc1C(=O)NC12CC(NC(=O)COc3ccc(Cl)c(F)c3)(C1)C2` [Compound 821, N-{3-[2-(4-chloro-3-fluorophenoxy)acetamido]bicyclo[1.1.1]pentan-1-yl}-1-methyl-1H-pyrrole-2-carboxamide], the pEC50 is below 5.70.
